Reference: article PMC11739599 (Nature Communications, 2025)

Tests used:
Test in all cases: KINOMEscan panel
Assay type in all cases: biochemical
[1] = target: RSK4 (Homo sapiens, UniProt Q9UK32)
[2] = target: RSK1 (ribosomal protein S6 kinase A1) (Homo sapiens, UniProt Q15418)
[3] = target: RSK3 (Homo sapiens, UniProt Q15349)
[4] = target: RSK2 (Homo sapiens, UniProt P51812)
Sequence of RSK2 (P51812 whole entry): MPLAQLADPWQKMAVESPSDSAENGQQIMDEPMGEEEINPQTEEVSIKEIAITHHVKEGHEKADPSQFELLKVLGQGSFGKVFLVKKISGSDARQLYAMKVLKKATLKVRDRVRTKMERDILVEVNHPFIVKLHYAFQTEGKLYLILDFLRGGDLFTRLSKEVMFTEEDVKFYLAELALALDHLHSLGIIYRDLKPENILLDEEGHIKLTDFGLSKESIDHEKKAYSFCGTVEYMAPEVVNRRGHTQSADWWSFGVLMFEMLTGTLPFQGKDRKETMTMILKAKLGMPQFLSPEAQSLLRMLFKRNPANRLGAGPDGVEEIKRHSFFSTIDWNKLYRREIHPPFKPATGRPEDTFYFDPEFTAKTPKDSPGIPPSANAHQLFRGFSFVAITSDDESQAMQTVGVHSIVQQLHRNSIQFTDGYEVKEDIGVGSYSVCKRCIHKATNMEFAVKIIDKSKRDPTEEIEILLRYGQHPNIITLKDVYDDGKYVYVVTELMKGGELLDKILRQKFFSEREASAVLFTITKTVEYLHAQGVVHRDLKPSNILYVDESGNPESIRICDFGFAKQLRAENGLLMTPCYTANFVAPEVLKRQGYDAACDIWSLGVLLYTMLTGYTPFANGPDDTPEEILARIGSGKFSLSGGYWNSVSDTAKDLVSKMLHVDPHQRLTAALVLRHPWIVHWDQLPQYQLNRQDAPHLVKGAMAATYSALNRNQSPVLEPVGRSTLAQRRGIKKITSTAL

Sequence of RSK4 (Q9UK32 whole entry): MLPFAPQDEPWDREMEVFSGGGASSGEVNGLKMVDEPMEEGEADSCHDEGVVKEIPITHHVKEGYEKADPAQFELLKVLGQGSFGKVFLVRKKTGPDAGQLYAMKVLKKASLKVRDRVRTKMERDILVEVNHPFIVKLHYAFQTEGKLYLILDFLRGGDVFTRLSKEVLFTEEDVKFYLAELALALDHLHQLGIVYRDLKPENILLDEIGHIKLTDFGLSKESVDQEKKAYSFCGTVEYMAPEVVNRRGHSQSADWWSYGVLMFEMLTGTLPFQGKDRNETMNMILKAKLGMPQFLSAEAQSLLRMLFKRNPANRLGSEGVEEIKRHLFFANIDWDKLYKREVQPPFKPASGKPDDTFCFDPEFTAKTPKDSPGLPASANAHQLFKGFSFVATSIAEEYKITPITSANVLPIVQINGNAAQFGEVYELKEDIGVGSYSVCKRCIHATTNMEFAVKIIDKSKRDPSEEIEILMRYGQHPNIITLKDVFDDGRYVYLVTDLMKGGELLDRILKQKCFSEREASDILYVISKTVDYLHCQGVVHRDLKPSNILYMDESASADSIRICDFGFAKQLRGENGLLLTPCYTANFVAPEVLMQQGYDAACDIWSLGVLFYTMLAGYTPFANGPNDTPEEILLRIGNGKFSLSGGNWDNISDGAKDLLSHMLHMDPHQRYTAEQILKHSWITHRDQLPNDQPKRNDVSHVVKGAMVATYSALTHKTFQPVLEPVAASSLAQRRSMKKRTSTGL
Sequence of RSK1 (ribosomal protein S6 kinase A1) (Q15418 whole entry): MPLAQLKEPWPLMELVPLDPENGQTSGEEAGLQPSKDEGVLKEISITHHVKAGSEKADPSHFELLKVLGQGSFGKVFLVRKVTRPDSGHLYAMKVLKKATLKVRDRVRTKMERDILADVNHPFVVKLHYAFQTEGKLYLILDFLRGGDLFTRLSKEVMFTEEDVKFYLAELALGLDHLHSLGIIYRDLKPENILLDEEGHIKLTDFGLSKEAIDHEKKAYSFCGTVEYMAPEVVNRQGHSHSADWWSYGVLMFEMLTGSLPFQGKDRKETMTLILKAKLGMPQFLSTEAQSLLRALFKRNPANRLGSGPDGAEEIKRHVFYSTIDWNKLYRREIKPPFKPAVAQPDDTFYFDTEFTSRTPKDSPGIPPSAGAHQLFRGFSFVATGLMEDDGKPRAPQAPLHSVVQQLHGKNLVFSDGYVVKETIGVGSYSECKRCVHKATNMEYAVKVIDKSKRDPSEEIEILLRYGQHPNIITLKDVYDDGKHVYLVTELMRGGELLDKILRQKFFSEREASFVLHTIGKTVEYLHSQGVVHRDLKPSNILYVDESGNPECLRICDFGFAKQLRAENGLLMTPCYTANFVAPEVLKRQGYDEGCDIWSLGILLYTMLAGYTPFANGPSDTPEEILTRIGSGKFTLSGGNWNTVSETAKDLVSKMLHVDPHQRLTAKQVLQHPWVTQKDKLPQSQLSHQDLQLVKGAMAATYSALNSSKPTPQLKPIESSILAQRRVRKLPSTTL
Sequence of RSK3 (Q15349 whole entry): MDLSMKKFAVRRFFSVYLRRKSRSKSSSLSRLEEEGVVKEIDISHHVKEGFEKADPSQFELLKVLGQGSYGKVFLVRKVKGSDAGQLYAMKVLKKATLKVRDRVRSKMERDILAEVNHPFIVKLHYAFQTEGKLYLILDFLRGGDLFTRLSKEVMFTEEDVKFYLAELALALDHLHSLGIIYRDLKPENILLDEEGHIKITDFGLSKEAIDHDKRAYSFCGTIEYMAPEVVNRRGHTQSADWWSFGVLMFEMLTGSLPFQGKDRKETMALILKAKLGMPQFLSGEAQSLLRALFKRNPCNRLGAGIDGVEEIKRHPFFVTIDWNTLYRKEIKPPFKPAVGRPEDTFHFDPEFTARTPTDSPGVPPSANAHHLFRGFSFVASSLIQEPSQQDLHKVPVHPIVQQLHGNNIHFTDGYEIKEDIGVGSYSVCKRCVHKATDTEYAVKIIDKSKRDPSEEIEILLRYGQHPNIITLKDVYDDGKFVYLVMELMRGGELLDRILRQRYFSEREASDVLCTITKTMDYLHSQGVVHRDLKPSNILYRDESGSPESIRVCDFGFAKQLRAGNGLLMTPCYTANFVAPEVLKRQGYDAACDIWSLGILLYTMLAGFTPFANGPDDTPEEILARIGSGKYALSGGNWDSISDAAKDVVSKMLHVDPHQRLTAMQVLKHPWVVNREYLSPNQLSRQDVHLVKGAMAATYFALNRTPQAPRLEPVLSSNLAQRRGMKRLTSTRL

An IC50 [1] of 2 nM, an IC50 [2] of 2 nM and an IC50 [3] of 0.9 nM were found for PMD-026 in this work. For the same substance, the IC50 [4] was 0.7 nM.
